# Test results from ChEMBL document CHEMBL4396947, “Synthesis and characterization of novel isoform-selective IP6K1 inhibitors” (Bioorg Med Chem Lett, 2019).
# Legend:
# [1] = biological target: Protein kinase C alpha type (Homo sapiens) (UniProt P17252); test: Inhibition of recombinant full length human PKCalpha assessed as residual activity at 10 uM using histone H1 as substrate incubated for 40 mins in presence of [gamma-33P]ATP at Km concentration by radiometric assay relative to control
# [2] = biological target: Vascular endothelial growth factor receptor 2 (Homo sapiens) (UniProt P35968); test: Inhibition of human recombinant KDR (790 to end residues) assessed as residual activity at 10 uM using myelin basic protein as substrate incubated for 40 mins in presence of [gamma-33P]ATP at Km concentration by radiometric assay relative to control
# [3] = biological target: Serine/threonine-protein kinase pim-1 (Homo sapiens) (UniProt P11309); test: Inhibition of recombinant full length human PIM1 assessed as residual activity at 10 uM using KKRNRTLTV as substrate incubated for 40 mins in presence of [gamma-33P]ATP at Km concentration by radiometric assay relative to control
# [4] = biological target: Dual specificity mitogen-activated protein kinase kinase 1 (Homo sapiens) (UniProt Q02750); test: Inhibition of full length recombinant human MEK1 assessed as residual activity at 10 uM using inactive MAPK2 as substrate incubated for 40 mins in presence of [gamma-33P]ATP at Km concentration by radiometric assay relative to control
# Homo sapiens = species: Homo sapiens; test: Inhibition of recombinant full-length human AURKA I31F mutant assessed as residual activity at 10 uM using LRRASLG as substrate incubated for 40 mins in presence of [gamma-33P]ATP at Km concentration by radiometric assay relative to control
# [5] = biological target: Serine/threonine-protein kinase 17A (Homo sapiens) (UniProt Q9UEE5); test: Inhibition of human full length recombinant DRAK1 assessed as residual activity at 10 uM using KKLNRTLSFAEPG as substrate incubated for 40 mins in presence of [gamma-33P]ATP at Km concentration by radiometric assay relative to control
# [6] = system: Ribosomal protein S6 kinase beta-1 (Homo sapiens), P23443 [T412E]; test: Inhibition of recombinant human p70S6K T412E mutant (1 to 421 residues) assessed as residual activity at 10 uM incubated for 40 mins in presence of [gamma-33P]ATP at Km concentration by radiometric assay relative to control
# Sequence of Ribosomal protein S6 kinase beta-1 (Homo sapiens), P23443 [T412E] (P23443 whole entry T412E, looked up, the tested form may be a part): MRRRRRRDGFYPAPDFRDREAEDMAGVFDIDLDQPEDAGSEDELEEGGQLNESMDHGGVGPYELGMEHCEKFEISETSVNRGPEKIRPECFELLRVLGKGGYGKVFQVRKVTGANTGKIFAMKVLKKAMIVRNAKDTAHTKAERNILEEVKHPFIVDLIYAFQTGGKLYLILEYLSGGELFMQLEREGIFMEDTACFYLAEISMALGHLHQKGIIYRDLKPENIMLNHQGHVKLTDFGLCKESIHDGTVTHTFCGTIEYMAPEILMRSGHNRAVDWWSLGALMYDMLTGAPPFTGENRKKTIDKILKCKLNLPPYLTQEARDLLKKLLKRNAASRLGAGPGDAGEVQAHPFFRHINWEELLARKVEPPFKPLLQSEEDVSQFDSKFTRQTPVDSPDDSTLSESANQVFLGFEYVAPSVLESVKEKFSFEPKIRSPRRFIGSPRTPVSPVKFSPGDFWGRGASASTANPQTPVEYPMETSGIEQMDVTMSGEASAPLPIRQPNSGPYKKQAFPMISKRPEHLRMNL
# Sequence of Vascular endothelial growth factor receptor 2 (Homo sapiens) (P35968 whole entry): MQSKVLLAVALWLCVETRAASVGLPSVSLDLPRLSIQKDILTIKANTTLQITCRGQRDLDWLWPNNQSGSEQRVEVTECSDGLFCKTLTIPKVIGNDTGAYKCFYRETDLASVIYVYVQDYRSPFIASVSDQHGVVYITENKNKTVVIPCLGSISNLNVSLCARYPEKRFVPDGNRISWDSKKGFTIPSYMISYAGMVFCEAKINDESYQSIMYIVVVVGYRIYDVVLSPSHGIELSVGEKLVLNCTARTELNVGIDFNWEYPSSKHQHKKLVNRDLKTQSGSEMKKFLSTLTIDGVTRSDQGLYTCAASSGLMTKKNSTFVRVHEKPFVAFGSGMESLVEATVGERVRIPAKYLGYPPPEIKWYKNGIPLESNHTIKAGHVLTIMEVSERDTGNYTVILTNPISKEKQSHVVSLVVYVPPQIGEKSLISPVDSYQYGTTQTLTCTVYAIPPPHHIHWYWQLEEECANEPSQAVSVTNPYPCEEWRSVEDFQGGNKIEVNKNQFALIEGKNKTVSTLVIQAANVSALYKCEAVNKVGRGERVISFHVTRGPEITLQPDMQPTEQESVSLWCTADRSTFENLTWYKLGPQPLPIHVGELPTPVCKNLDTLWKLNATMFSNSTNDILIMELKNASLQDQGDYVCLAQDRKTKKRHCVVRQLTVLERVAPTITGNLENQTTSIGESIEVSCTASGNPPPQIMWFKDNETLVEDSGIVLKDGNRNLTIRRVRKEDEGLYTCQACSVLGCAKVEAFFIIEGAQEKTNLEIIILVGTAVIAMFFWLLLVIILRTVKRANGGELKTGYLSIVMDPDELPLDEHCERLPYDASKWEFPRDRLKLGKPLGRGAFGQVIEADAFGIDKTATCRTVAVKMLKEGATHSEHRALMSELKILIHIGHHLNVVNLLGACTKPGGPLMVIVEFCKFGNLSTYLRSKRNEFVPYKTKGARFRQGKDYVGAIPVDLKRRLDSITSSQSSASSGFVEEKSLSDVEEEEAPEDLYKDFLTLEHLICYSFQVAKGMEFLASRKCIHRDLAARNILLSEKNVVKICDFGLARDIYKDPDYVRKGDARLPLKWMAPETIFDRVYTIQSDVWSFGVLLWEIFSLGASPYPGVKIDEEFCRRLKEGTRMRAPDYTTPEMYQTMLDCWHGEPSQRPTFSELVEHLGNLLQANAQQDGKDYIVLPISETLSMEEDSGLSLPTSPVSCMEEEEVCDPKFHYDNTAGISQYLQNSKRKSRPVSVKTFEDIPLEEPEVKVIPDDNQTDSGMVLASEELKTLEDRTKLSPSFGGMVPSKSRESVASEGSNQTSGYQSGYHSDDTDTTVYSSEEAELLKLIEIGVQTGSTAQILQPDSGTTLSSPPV
# Sequence of Serine/threonine-protein kinase 17A (Homo sapiens) (Q9UEE5 whole entry, the tested form may be a part): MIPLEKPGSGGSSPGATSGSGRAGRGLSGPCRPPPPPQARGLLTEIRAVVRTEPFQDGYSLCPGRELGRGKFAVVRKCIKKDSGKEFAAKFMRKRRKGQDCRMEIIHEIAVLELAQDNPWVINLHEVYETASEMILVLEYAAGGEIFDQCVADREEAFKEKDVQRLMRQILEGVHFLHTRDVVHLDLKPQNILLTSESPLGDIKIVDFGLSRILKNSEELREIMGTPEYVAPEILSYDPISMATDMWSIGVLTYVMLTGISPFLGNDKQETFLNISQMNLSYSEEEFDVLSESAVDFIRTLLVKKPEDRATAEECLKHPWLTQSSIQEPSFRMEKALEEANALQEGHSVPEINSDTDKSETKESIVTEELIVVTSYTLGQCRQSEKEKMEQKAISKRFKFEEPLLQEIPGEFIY
# Sequence of Serine/threonine-protein kinase pim-1 (Homo sapiens) (P11309 whole entry, looked up): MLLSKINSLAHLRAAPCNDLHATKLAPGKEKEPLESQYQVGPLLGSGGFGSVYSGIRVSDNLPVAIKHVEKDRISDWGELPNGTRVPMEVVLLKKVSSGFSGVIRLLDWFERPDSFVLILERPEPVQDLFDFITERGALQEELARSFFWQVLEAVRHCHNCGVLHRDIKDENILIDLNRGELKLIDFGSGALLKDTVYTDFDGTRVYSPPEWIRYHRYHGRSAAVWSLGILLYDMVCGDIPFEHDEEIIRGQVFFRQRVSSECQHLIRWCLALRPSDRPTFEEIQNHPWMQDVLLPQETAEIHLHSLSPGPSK
# Sequence of Dual specificity mitogen-activated protein kinase kinase 1 (Homo sapiens) (Q02750 whole entry): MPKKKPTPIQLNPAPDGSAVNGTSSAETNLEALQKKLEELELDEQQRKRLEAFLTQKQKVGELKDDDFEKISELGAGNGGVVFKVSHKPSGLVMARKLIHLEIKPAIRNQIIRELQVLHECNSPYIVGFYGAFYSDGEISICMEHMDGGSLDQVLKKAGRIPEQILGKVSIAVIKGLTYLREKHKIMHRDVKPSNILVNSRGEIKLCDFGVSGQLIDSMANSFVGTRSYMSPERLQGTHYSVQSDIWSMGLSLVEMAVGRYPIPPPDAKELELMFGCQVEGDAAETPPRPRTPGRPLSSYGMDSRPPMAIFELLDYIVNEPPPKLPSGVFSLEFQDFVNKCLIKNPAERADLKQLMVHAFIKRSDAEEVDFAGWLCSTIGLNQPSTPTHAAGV
compound,measurement,setting,value
COc1ccc2c(CCNc3nc(NCc4ccc(=O)[nH]c4)c4nc[nH]c4n3)c[nH]c2c1,Activity,[1],86%
same,Activity,[2],60%
same,Activity,[3],82%
same,Activity,[4],11%
same,Activity,Homo sapiens,46%
same,Activity,[5],69%
same,Activity,[6],94%
